Patent US12655126B2, “Imidazole-pyrazole derivatives as antibacterials” (Hoffmann-La Roche Inc., priority 2020, dated 2026)

Test system: Acinetobacter baumannii ATCC17961
Assay: Antimicrobial susceptibility testing: 90% growth inhibitory concentration (IC90) determination
Format: cell-based
Conditions: Acinetobacter baumannii, ATCC17961, 16 h, read-out: ATCC 17961 IC90
Outline: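 Broth microdilution in Iso-Sensitest medium with twofold dilutions (e.g. 50 to 0.097 μM final) and inoculum ~5×10^(5) CFU/ml, 35±2 °C. OD600 was followed for 16 h; IC90 was derived from inhibition during logarithmic growth.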

`Cn1c(-c2cn(-c3ccc(NCCN)cn3)nc2C(F)(F)F)cnc1C(=O)Nc1ccc(C(=O)N2CCN(C(=O)C3CC[N+](C)(C)CC3)CC2)c(Cl)c1` [Example M1, 5-[1-[5-(2-aminoethylamino)-2-pyridyl]-3-(trifluoromethyl)pyrazol-4-yl]-N-[3-chloro-4-[4-(1,1-dimethylpiperidin-1-ium-4-carbonyl)piperazine-1-carbonyl]phenyl]-1-methyl-imidazole-2-carboxamide; 2,2,2-trifluoroacetic acid; 2,2,2-trifluoroacetate] showed an IC90 of 100 nM.
